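Growth conditions: 96-well plates. Treatment: test compound, 48 hours, 5 concentrations. Analysis: linear interpolation between bracketing concentrations; unreached endpoints set to highest concentration. Abbreviation: GI50, concentration required for 50% inhibition of growth.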 Active and inactive are the calls of the source. Cut-off read from the data, not from the text of the source: active = GI50 up to about 1.1 µM and inactive = higher.
Legend:
Assay in all cases: NCI-60 cell line screen, 48 h
[1] = test system: BT-549
[2] = test system: OVCAR-8
[3] = test system: SF-268
[4] = test system: SF-539
[5] = test system: OVCAR-5
[6] = test system: MDA-N
[7] = test system: HOP-92
[8] = test system: OVCAR-4
[9] = test system: SN12C
[10] = test system: SF-295
[11] = test system: MDA-MB-231
[12] = test system: UACC-257
[13] = test system: HT-29
[14] = test system: M14
[15] = test system: MOLT-4
[16] = test system: SNB-75
[17] = test system: NCI-H226
[18] = test system: HOP-62
[19] = test system: SR
[20] = test system: IGROV-1

Row | Compound | GI50 [1] | GI50 [2] | GI50 [3] | GI50 [4] | GI50 [5] | GI50 [6] | GI50 [7] | GI50 [8] | GI50 [9] | GI50 [10] | GI50 [11] | GI50 [12] | GI50 [13] | GI50 [14] | GI50 [15] | GI50 [16] | GI50 [17] | GI50 [18] | GI50 [19] | GI50 [20]
1 | CC1(C)OC[C@@H]([C@H](O)C2C=CC(=O)S2)O1 (stereo partly specified) | 17.9 µM (inactive) | 21.2 µM (inactive) | 15.5 µM (inactive) | 27.4 µM (inactive) | 63.7 µM (inactive) | 22.1 µM (inactive) | 22.4 µM (inactive) | 42.1 µM (inactive) | 27.9 µM (inactive) | 27.5 µM (inactive) | 30.8 µM (inactive) | 26.8 µM (inactive) | 23.6 µM (inactive) | 44.3 µM (inactive) | 32 µM (inactive) | 45.5 µM (inactive) | 27.5 µM (inactive) | 47.9 µM (inactive) | – | –
2 | N#C/C(=C\c1cc(Br)c(O)c(Br)c1)c1ccccn1 | 30.2 µM (inactive) | 94.8 µM (inactive) | 93.8 µM (inactive) | 84.7 µM (inactive) | 51.4 µM (inactive) | > 100 µM (inactive) | 14.5 µM (inactive) | 61 µM (inactive) | 46.7 µM (inactive) | 16 µM (inactive) | – | 35.4 µM (inactive) | 59 µM (inactive) | 72.8 µM (inactive) | 32.5 µM (inactive) | > 100 µM (inactive) | 30.4 µM (inactive) | 53.2 µM (inactive) | > 100 µM (inactive) | > 100 µM (inactive)
3 | CC1(C)C(=O)C=CC2(C)C1CC(O)C1(C)C2CCC2(C)C(c3ccoc3)OC(=O)C3OC321 (stereo unspecified) | 18.7 µM (inactive) | 13.3 µM (inactive) | – | > 10 µM (inactive) | 32.3 µM (inactive) | 18.1 µM (inactive) | 16.4 µM (inactive) | 15 µM (inactive) | 18.7 µM (inactive) | 20 µM (inactive) | 15.8 µM (inactive) | > 10 µM (inactive) | 17.1 µM (inactive) | 32 µM (inactive) | 5.87 µM (inactive) | 15.9 µM (inactive) | 14.2 µM (inactive) | 24.4 µM (inactive) | – | 14.3 µM (inactive)
4 | Nc1c(OCC(=O)O)ccc2cc(S(=O)(=O)O)ccc12 | > 100 µM (inactive) | > 100 µM (inactive) | > 100 µM (inactive) | > 100 µM (inactive) | – | > 100 µM (inactive) | – | > 100 µM (inactive) | > 100 µM (inactive) | > 100 µM (inactive) | > 100 µM (inactive) | > 100 µM (inactive) | – | > 100 µM (inactive) | – | > 100 µM (inactive) | > 100 µM (inactive) | > 100 µM (inactive) | – | > 100 µM (inactive)
5 | COc1ccc2c(c1O)[C@@]13CCCC=C1[C@@H](C2)[N+](C)(C)CC3 | 46.7 µM (inactive) | > 100 µM (inactive) | > 100 µM (inactive) | – | > 100 µM (inactive) | > 100 µM (inactive) | > 100 µM (inactive) | > 100 µM (inactive) | > 100 µM (inactive) | > 100 µM (inactive) | > 100 µM (inactive) | 79.1 µM (inactive) | > 100 µM (inactive) | > 100 µM (inactive) | – | 77.6 µM (inactive) | > 100 µM (inactive) | > 100 µM (inactive) | – | > 100 µM (inactive)
6 | O=c1c2ccccc2nc(Cc2nc(-c3ccc(Cl)cc3)cs2)n1-c1ccc(Cl)cc1 | 82.2 µM (inactive) | 82.6 µM (inactive) | 62.4 µM (inactive) | – | 27.1 µM (inactive) | 41.4 µM (inactive) | 9.64 µM (inactive) | 76.2 µM (inactive) | – | 44.4 µM (inactive) | > 100 µM (inactive) | 67.6 µM (inactive) | 85.7 µM (inactive) | > 100 µM (inactive) | 30.9 µM (inactive) | 79.6 µM (inactive) | 88.5 µM (inactive) | > 100 µM (inactive) | – | 45.2 µM (inactive)
7 | C=C(C)C(=O)O[C@H]1CC2=CC(CC(C)=C[C@H]3OC(=O)C(=C)C13)OC2=O (stereo partly specified) | 16.3 µM (inactive) | 35.8 µM (inactive) | 20.6 µM (inactive) | 29.7 µM (inactive) | 33.7 µM (inactive) | 24.4 µM (inactive) | 16.4 µM (inactive) | 34.8 µM (inactive) | 22.1 µM (inactive) | > 100 µM (inactive) | 25.2 µM (inactive) | 25.5 µM (inactive) | 17 µM (inactive) | 29.4 µM (inactive) | 19.8 µM (inactive) | > 100 µM (inactive) | > 100 µM (inactive) | – | – | 33 µM (inactive)
8 | C[C@@H]1CC(=O)C[C@@H]2CC[C@H]3[C@@H]4CC[C@H](OC(=O)c5cccc6cc7ccccc7nc56)[C@H]4CC[C@@H]3[C@H]21 | 26.1 µM (inactive) | 16 µM (inactive) | 6.4 µM (inactive) | 16.7 µM (inactive) | 18.8 µM (inactive) | 13.5 µM (inactive) | 23.3 µM (inactive) | 13.6 µM (inactive) | 16.6 µM (inactive) | 27.8 µM (inactive) | 15.9 µM (inactive) | 14.3 µM (inactive) | 15.8 µM (inactive) | 15.5 µM (inactive) | 3.48 µM (inactive) | 15.6 µM (inactive) | 26.5 µM (inactive) | 22.8 µM (inactive) | – | 3.89 µM (inactive)
9 | COc1cc(C2SC(=N)Nc3c2c(C)nn3C(=O)c2ccccc2O)ccc1O (stereo unspecified) | > 2.63 µM (inactive) | > 2.33 µM (inactive) | > 3.05 µM (inactive) | – | > 5.53 µM (inactive) | 1.75 µM (inactive) | > 10 µM (inactive) | > 2.1 µM (inactive) | > 2.64 µM (inactive) | 1.28 µM (inactive) | > 3.98 µM (inactive) | 0.94 µM (active) | > 6.38 µM (inactive) | > 2.85 µM (inactive) | > 2.28 µM (inactive) | 1.04 µM (active) | > 2.25 µM (inactive) | > 2.61 µM (inactive) | – | 1.61 µM (inactive)
10 | CC1(C)CC(=O)C(=CN2C(=O)CNC2=S)C(=O)C1 | > 100 µM (inactive) | > 100 µM (inactive) | > 100 µM (inactive) | > 100 µM (inactive) | > 100 µM (inactive) | > 100 µM (inactive) | > 100 µM (inactive) | > 100 µM (inactive) | > 100 µM (inactive) | > 100 µM (inactive) | > 100 µM (inactive) | > 100 µM (inactive) | – | > 100 µM (inactive) | > 100 µM (inactive) | > 100 µM (inactive) | > 100 µM (inactive) | > 100 µM (inactive) | – | > 100 µM (inactive)
11 | C[C@H]1[C@H]2[C@H]3CC[C@@H]4[C@@]5(C)CC[C@H](O)C(C)(C)[C@@H]5CC[C@@]4(C)[C@]3(C)C[C@H](O)[C@@]2(C)C[C@H]2O[C@]21C | 20.4 µM (inactive) | 19.6 µM (inactive) | 18 µM (inactive) | 18.8 µM (inactive) | 24.6 µM (inactive) | 18.9 µM (inactive) | 17.7 µM (inactive) | 25.1 µM (inactive) | 16.9 µM (inactive) | 15.6 µM (inactive) | 18 µM (inactive) | 16.8 µM (inactive) | 14.3 µM (inactive) | 25.5 µM (inactive) | 27.5 µM (inactive) | – | – | 20.7 µM (inactive) | – | 27.4 µM (inactive)
12 | COc1cc(NC(C)=O)ccc1C(=O)NN1C(=O)C(Cl)C1c1ccco1 (stereo unspecified) | > 100 µM (inactive) | 87.3 µM (inactive) | > 100 µM (inactive) | > 100 µM (inactive) | > 100 µM (inactive) | > 100 µM (inactive) | > 100 µM (inactive) | > 100 µM (inactive) | > 100 µM (inactive) | – | – | – | > 100 µM (inactive) | > 100 µM (inactive) | 31.9 µM (inactive) | > 100 µM (inactive) | 44.7 µM (inactive) | – | 36.6 µM (inactive) | 80.5 µM (inactive)
13 | c1cc(-c2ccc(-c3ccc(C4=NC5CCCCC5N4)cc3)o2)ccc1C1=NC2CCCCC2N1 (stereo unspecified) | 2.11 µM (inactive) | 1.79 µM (inactive) | 1.55 µM (inactive) | 1.73 µM (inactive) | 2.09 µM (inactive) | 1.67 µM (inactive) | 1.43 µM (inactive) | 1.56 µM (inactive) | 1.47 µM (inactive) | 1.84 µM (inactive) | 1.5 µM (inactive) | 1.75 µM (inactive) | 1.39 µM (inactive) | 1.64 µM (inactive) | 1.8 µM (inactive) | 1.68 µM (inactive) | 1.85 µM (inactive) | 1.5 µM (inactive) | – | –
14 | Cc1c(NC(=S)N/N=C\C(=N/NC(=S)Nc2c(C)n(C)n(-c3ccccc3)c2=O)c2ccccc2)c(=O)n(-c2ccccc2)n1C | > 100 µM (inactive) | – | > 100 µM (inactive) | > 100 µM (inactive) | > 100 µM (inactive) | – | > 100 µM (inactive) | > 100 µM (inactive) | – | > 100 µM (inactive) | > 100 µM (inactive) | > 100 µM (inactive) | > 100 µM (inactive) | > 100 µM (inactive) | > 100 µM (inactive) | > 100 µM (inactive) | > 100 µM (inactive) | > 100 µM (inactive) | > 100 µM (inactive) | –
15 | O=C1/C(=C/c2ccc(Cl)cc2)N=C(c2ccccc2)N1c1nc2ccc(Sc3ccccc3)cc2[nH]1 | 21.7 µM (inactive) | 30.1 µM (inactive) | 36.3 µM (inactive) | – | 25.6 µM (inactive) | 10.6 µM (inactive) | 45.9 µM (inactive) | 34.7 µM (inactive) | 29 µM (inactive) | 25.9 µM (inactive) | 35.2 µM (inactive) | 22.3 µM (inactive) | 19.1 µM (inactive) | 16.3 µM (inactive) | 25.3 µM (inactive) | 15.8 µM (inactive) | – | 40.3 µM (inactive) | – | 40.6 µM (inactive)

From ChEMBL document CHEMBL1201862, “PubChem BioAssay data set” (2004)
